{"source": "paper PMC11755529", "about": "“Chlorpyrifos Acts as a Positive Modulator and an Agonist of N-Methyl-D-Aspartate (NMDA) Receptors: A Novel Mechanism of Chlorpyrifos-Induced Neurotoxicity” (Journal of Xenobiotics, 2025)", "key": {"GluN1-1a/GluN2B NMDAR": {"target": "T1, GluN1-1a/GluN2B NMDAR (Rattus norvegicus, UniProt P35439+Q00960)", "T1 construct": "expressed in transfected cells; host or cells: Xenopus laevis oocytes, injected with cRNA or plasmid DNA (pRK7 or pBluescript SK(-))", "T1 sequence (Q00960 27-1482, other chains not shown)": "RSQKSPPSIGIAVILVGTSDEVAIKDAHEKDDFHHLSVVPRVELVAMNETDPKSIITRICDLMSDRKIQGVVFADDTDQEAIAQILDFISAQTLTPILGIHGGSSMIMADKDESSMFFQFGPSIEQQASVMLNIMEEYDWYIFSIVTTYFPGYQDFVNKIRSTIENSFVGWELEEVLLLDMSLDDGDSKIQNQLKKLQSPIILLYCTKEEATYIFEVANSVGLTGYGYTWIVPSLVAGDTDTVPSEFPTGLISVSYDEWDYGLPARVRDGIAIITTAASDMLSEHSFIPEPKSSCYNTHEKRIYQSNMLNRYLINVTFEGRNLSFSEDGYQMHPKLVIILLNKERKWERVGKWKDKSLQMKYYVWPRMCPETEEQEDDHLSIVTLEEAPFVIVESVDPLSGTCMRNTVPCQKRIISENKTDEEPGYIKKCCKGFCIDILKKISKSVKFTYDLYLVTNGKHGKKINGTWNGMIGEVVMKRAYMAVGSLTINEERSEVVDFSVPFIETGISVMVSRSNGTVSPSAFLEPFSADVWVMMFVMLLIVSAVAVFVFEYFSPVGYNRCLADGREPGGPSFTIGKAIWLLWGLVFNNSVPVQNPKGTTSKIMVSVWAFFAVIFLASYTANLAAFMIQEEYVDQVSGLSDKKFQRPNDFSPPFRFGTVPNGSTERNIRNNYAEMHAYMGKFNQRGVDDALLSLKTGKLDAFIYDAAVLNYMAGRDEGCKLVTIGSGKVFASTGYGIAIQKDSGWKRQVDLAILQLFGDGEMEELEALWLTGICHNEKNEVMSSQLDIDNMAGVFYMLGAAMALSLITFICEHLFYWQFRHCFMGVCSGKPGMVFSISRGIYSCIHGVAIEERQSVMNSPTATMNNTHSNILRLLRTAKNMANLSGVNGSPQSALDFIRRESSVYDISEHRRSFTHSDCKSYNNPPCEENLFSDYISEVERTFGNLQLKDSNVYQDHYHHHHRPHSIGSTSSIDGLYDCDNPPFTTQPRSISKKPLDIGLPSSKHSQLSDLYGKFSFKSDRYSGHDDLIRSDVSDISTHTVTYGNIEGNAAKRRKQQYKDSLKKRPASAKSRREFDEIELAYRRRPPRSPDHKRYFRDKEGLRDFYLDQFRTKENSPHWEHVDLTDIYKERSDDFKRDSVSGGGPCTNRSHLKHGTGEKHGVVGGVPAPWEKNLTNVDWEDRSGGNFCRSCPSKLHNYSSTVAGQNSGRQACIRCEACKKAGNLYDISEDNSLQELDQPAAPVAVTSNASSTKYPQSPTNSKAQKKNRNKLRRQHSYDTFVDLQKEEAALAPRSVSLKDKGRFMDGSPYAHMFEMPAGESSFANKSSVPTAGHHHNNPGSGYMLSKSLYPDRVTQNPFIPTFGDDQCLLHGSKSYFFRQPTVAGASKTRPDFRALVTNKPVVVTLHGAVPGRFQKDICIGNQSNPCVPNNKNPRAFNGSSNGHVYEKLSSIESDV", "test": "TEVC electrophysiology of Xenopus oocytes expressing GluN1-1a/GluN2B", "assay_type": "cell-based", "method": "(§1) Ovaries of mature female Xenopus laevis were supplied by the European Xenopus Resource Centre (University of Portsmouth, Portsmouth, UK). Upon receipt, oocytes were first separated with 1 mg/mL collagenase (Type 1A from Clostridium histolyticum; Sigma, Poole, UK) in Ca^2+-free Barth’s gentamicin–theophylline–pyruvate (GTP) solution (96 mM NaCl, 2 mM KCl, 1 mM MgCl2, 5 mM HEPES, 2.5 mM pyruvic acid, 0.5 mM theophylline, 50 μg/mL gentamicin, pH 7.5) on a shaker for approximately 45 min at room temperature. Oocytes were then rinsed with Ca^2+-free GTP solution six to eight times until a clear solution was obtained and incubated in normal Barth’s GTP solution (Ca^2+-free GTP with inclusion of 1.8 mM CaCl2) at ~4 °C for at least half an hour prior to microinjection.\n(§2) Healthy oocytes at developmental stages IV and V were injected with 50 nL of cRNA (into the cytoplasm) or plasmid DNA (into the nucleus) at a concentration of ~100 ng/μL using a Nanolitre 2010 Injector (World Precision Instruments, Hitchin, UK). cRNA or DNA plasmids encoding the rat NMDAR subunits GluN1-1a and GluN2A or GluN1-1a and GluN2B were mixed at ratios of 1:1 (by weight) for injection. The cRNA was synthesized from linearized plasmid DNA (pRK7 or pBluscript SK(−)) containing the GluN-encoding genes using an Invitrogen mMessage mMachine kit (Thermo Fisher Scientific, Loughborough, UK). Injected oocytes were kept in normal Barth’s GTP solution at 19 °C for two to three days for expression of NMDAR subunits before recordings.\n(§3) TEVC electrophysiology was used to assess the direct effects of CPF on NMDARs containing GluN1-1a and GluN2A or GluN1-1a and GluN2B subunits expressed in Xenopus oocytes. Pulled borosilicate glass capillaries (GC150TF-10, Harvard Apparatus, Cambridge, UK) (resistances 0.5–2 MΩ) were filled with 3 M KCl and used to impale injected oocytes for recording. Injected oocytes were continuously perfused with Mg^2+-free Xenopus Ringer solution (95 mM NaCl, 2 mM KCl, 2 mM CaCl2, 5 mM HEPES, pH 7.5) at a flow rate of 5 mL/min, with test compounds applied using a Valvelink 8 gravity-fed perfusion system (Automate Scientific, Berkeley, CA, USA). Recordings were performed at 20–25 °C and oocytes were clamped at −75 mV holding potential in all experiments. Output current responses were transferred to a PC via an analogue-to-digital (A/D) converter (National Instruments PCI-6014, Austin, TX, USA) and recorded in WinEDR V3.2.7 software (John Dempster, Strathclyde Electrophysiology Software, Strathclyde Institute of Pharmacy and Biomedical Sciences, University of Strathclyde, Strathclyde, UK). Current changes in response to NMDA/glycine when applied with CPF were normalized to the control current without CPF.\n(§4) Results were expressed as means ± standard error of the mean (SEM). Statistical analysis was undertaken between concentrations using an independent samples Kruskal–Wallis test across cell culture conditions using IBM SPSS statistical software (version 26.0). […] EC50 and maximum response values were obtained using non-linear regression by fitting a four-parametric logistic equation to concentration–response plots in GraphPad Prism 10 (GraphPad Software Inc., La Jolla, CA, USA):(1) Y=Min+Max−Min/10^LogEC50−XS+1 where Y is the response to the agonist, X is the log10 concentration of the agonist, EC50 is the concentration of agonist that produces a half-maximum activation response, and S is the Hill slope. EC50s and maximum responses were compared for significant differences using an extra sum of squares F-test in GraphPad Prism 10."}, "[1]": {"test": "Three-color fluorescence (FDA/PI) live, dead and apoptotic cell staining", "assay_type": "cell-based, human", "settings": "human, 14 μM CPF, control 96.4%, p < 0.001, read-out: cell viability (live cells)", "method": "(§5) The human neural progenitor ReNcell CX cell line (Merck Millipore, Watford, UK) is a neural stem cell line derived from the developing human fetal brain cortex ([…]) at 14 weeks of gestational age. The ReNcell CX cell line was expanded on laminin-coated flasks (20 μg/mL; Sigma-Aldrich, Poole, UK) in ReNcell Neural Stem Cell (NSC) Maintenance Medium (Merck Millipore, Watford, UK) containing fresh EGF (20 ng/mL; Merck Millipore, Watford, UK) and FGF-b (20 ng/mL; Merck Millipore, Watford, UK). Cultures were incubated at 37 °C in a 95% humidified atmosphere of 5% CO2. ReNcell CX neural progenitor cells were differentiated into a co-culture of neurons, astrocytes, and oligodendrocytes by replacing the complete ReNcell CX medium with EGF- and FGF-b-free medium; with the differentiation medium refreshed every 2 days throughout the 4-week differentiation period.\n(§6) A three-color fluorescence assay was performed as described by Kim et al.. Non-fluorescent fluorescein diacetate (FDA) permeates into active and intact cells and is hydrolyzed by intracellular esterases into a highly fluorescent green fluorescein when illuminated with a fluorescein isothiocyanate (FITC; blue) excitation filter set (emission wavelength […]). Propidium iodide (PI) is a nucleic acid dye that cannot permeate intact cell membranes and selectively stains the nuclei of dead cells or cells in late apoptotic stages. Stained nuclei omit red fluorescence under rhodamine (green) excitation (emission wavelength 650 nm). Live–dead cell assays followed the protocol described by Jones and Senft. The cells were observed using a Nikon TS100 inverted microscope (Nikon Europe B.V., Amstelveen, The Netherlands) with incident fluorescence optics. Images were captured at 200× magnification and digitalized with a Moticam 2300 camera (Roper Scientific Inc., Duluth, GA, USA; resolution 3 MP).\n(§7) Live/dead cell staining was analyzed quantitatively. The number of PI-stained nuclei was counted manually using the cell counting option in the ImageJ software (V2 Fiji-win64, University of Nottingham)."}, "[2]": {"tested_on": "4-week differentiated ReNcell CX cells", "test": "Three-color fluorescence (FDA/PI) live, dead and apoptotic cell staining", "assay_type": "cell-based, human", "settings": "24 h", "method": "as §5, §6, §7"}, "GluN1-1a/GluN2A NMDAR": {"target": "T2, GluN1-1a/GluN2A NMDAR (Rattus norvegicus, UniProt P35439+Q00959)", "T2 construct": "expressed in transfected cells; host or cells: Xenopus laevis oocytes, injected with cRNA or plasmid DNA (pRK7 or pBluescript SK(-))", "T2 sequence (Q00959 20-1464 limits assumed, other chains not shown)": "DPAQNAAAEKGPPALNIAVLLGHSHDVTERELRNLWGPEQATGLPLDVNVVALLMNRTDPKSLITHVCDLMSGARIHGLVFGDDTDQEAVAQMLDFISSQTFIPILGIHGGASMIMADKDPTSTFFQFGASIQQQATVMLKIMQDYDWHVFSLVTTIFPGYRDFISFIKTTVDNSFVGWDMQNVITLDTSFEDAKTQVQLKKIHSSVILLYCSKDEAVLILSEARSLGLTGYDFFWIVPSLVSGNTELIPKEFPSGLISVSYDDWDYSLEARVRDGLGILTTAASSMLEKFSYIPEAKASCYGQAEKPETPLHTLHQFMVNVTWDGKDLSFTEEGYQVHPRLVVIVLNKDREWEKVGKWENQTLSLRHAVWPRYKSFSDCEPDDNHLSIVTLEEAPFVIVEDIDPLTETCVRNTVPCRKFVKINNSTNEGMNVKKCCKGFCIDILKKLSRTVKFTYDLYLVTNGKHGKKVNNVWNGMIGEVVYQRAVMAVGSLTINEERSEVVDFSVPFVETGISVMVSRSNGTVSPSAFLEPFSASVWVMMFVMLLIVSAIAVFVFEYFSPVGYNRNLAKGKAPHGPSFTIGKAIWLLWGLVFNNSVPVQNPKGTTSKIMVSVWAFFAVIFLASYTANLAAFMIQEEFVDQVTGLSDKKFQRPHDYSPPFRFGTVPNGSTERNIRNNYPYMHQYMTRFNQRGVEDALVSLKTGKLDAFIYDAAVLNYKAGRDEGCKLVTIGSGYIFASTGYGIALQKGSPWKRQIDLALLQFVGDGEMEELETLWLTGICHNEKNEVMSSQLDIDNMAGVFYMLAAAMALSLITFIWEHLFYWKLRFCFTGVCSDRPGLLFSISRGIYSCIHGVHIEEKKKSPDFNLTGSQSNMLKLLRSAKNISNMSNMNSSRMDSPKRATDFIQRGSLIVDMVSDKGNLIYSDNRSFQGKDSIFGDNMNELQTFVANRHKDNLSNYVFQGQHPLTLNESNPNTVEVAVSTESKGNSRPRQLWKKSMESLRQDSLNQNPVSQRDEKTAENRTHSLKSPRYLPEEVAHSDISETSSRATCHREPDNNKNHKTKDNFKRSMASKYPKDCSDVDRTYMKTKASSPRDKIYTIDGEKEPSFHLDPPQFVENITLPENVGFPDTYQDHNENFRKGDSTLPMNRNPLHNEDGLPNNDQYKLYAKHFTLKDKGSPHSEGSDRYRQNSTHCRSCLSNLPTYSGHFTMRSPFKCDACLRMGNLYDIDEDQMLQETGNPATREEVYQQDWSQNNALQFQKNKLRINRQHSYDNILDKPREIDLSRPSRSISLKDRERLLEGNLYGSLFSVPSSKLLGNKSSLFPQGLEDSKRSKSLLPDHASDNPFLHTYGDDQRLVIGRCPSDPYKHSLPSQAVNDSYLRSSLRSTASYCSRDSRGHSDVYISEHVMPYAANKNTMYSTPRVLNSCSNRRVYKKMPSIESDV", "test": "TEVC electrophysiology of Xenopus oocytes expressing GluN1-1a/GluN2A", "assay_type": "cell-based", "method": "as §1, §2, §3, §4"}, "[3]": {"settings": "cited from earlier work"}, "[4]": {"settings": "10 μM CPF applied directly, −75 mV"}}, "note": "Like-named read-outs stand apart in the source and are kept apart here."}
{"smiles": "CCOP(=S)(OCC)Oc1nc(Cl)c(Cl)cc1Cl", "note": "[CPF, O,O-diethyl O-(3,5,6-trichloropyridin-2-yl) phosphorothioate]", "values": [{"measurement": "EC50", "setting": "GluN1-1a/GluN2B NMDAR", "result": "~0.055", "unit": "µM"}, {"measurement": "direct activation by CPF alone", "setting": "GluN1-1a/GluN2B NMDAR; [4]", "result": "resulted in NMDAR-mediated currents"}, {"measurement": "enhancement of current evoked by 100 μM NMDA", "setting": "GluN1-1a/GluN2B NMDAR; 10 μM CPF co-applied with 100 μM NMDA, n = 5, p < 0.05", "result": "~ 8.2 fold"}, {"measurement": "viability at 24 h, 14 μM", "setting": "[1]", "result": 71.4, "unit": "%"}, {"measurement": "cells transitioned to apoptosis", "setting": "[2]; 14 μM CPF", "result": 18.7, "unit": "%"}, {"measurement": "dead cells", "setting": "[2]; 14 μM CPF", "result": 3.91, "unit": "%"}, {"measurement": "EC50", "setting": "GluN1-1a/GluN2A NMDAR", "result": "~0.04", "unit": "µM"}, {"measurement": "enhancement of current evoked by 10 μM glycine", "setting": "GluN1-1a/GluN2A NMDAR; 1 μM CPF co-applied with 10 μM glycine, n = 3, p < 0.05", "result": "~ 1.7 fold"}, {"measurement": "direct activation by CPF alone", "setting": "GluN1-1a/GluN2A NMDAR; [4]", "result": "resulted in NMDAR-mediated currents"}, {"measurement": "no observed adverse effect level (NOAEL), as concentration", "setting": "[3]; conversion of 100 μg/kg/day as printed", "result": "≈ 285 nM"}, {"measurement": "no observed adverse effect level (NOAEL)", "setting": "[3]; set by European Food Safety Authority", "result": 100, "unit": "µg/kg/day"}]}
{"smiles": "CC(C(O)c1ccc(O)cc1)N1CCC(Cc2ccccc2)CC1", "note": "(stereo not drawn) [IFN, ifenprodil, reference compound]", "values": [{"measurement": "antagonism of CPF-induced potentiation of NMDA/glycine-evoked current", "setting": "GluN1-1a/GluN2B NMDAR; 100 μM IFN with 1 μM CPF, 10 μM NMDA, 10 μM Gly, −75 mV", "result": "completely blocked"}, {"measurement": "effect on CPF-induced decrease in cell viability", "setting": "[2]; 25 μM IFN co-administered with 14 μM CPF, p < 0.001", "result": "attenuated the CPF-induced decrease in ReNcell CX cell viability"}]}
{"smiles": "C[C@]12N[C@H](Cc3ccccc31)c1ccccc12", "note": "[MK-801, reference compound]", "values": [{"measurement": "antagonism of CPF-induced potentiation of NMDA/glycine-evoked current", "setting": "GluN1-1a/GluN2A NMDAR; 10 μM MK-801 with 1 μM CPF, 10 μM NMDA, 10 μM Gly, −75 mV", "result": "completely blocked"}]}
{"smiles": "CN[C@H](CC(=O)O)C(=O)O", "note": "[NMDA, N-methyl-D-aspartate]", "values": [{"measurement": "maximum response (percentage of the response to 1 mM NMDA)", "setting": "GluN1-1a/GluN2B NMDAR; 10 μM glycine, absence of CPF", "result": 103, "unit": "%"}, {"measurement": "EC50", "setting": "GluN1-1a/GluN2B NMDAR; 10 μM glycine, absence of CPF, n = 6, read-out: NMDA EC50", "result": 70, "unit": "µM"}, {"measurement": "maximum response (percentage of the response to 1 mM NMDA)", "setting": "GluN1-1a/GluN2A NMDAR; 10 μM glycine, absence of CPF", "result": 102, "unit": "%"}, {"measurement": "EC50", "setting": "GluN1-1a/GluN2A NMDAR; 10 μM glycine, absence of CPF, n = 5, read-out: NMDA EC50", "result": 57.9, "unit": "µM"}]}
